US20040072183A1, “Adhesive protein and uses thereof” (priority 2000, published 2004)

Legend:
[1] = system: spiggin mRNA; assay: Hormone implant dose response analysis of spiggin mRNA in kidney (slot blot, FIG. 3); type: in vivo, three-spined stickleback (Gasterosteus aculeatus); conditions: hormone in silastic capsule implanted in abdominal cavity, one month exposure
Description: Hormones at different concentrations were dissolved in […] of coconut oil and placed within silastic capsules (Dow Corning, internal diameter 0.6 mm, outer diameter 1.2 mm, length 5 mm). The sealed capsules were implanted into the abdominal cavity of each fish which were subsequently placed in aquaria containing 200 l of brackish water (0.5% salinity) at 17° C. under a stimulatory photoperiod of L:D 16:8. Following one month exposure the fish were sacrificed and the required organs removed by dissection and stored at −70° C.
[…] total RNA was combined with 90 ml of 20×SSC and 60 ml 37% formaldehyde. The final volume was adjusted to 300 ml with MQ water. Each preparation was transferred onto nylon membrane (Amersham Pharmacia Biotech) using a Minifold II Slot Blot apparatus (Schleicher & Schuell). The RNA was bound onto the membrane by cross-linking in a CL-1000 UV apparatus (UVP). Membranes were radioactively probed as described below (Paragraph 10) and the relative levels of mRNA were determined using a GS-250 Molecular Phosphoimager coupled to the Molecular Analyst (Version 1:41) package (Bio Rad). All dose-response determinations were performed in triplicate and the results were expressed as the mean (±SD) for each hormone and dose assayed. […]

[2] = system: spiggin; conditions: 11-KT treatment; cited from earlier work
[3] = system: spiggin mRNA; assay: Methyltestosterone induction of spiggin mRNA via water in juvenile fish (slot blot, FIG. 5); type: in vivo, three spined stickleback; conditions: exposure via water, 10 days, whole fish homogenate
Description: Juvenile three spined sticklebacks, with a body weight of approximately 100 mg, were exposed to different doses (100 pM, 10 nM and 1 uM) of methyltestosterone or to a combination of 10 nM methyltestosterone and 10 uM flutamide (an antiandrogen). After 10 days the fish were sacrificed. Whole fish were homogenized and spiggin mRNA levels were determined using slot blot analysis.

Structure (SMILES) | Inducibility of spiggin expression in kidney [1] | Inducibility of spiggin production [2] | Methyltestosterone concentration effective at inducing spiggin mRNA [3] [pM]
C[C@]12CC(=O)[C@H]3[C@@H](CCC4=CC(=O)CC[C@@]43C)[C@@H]1CC[C@@H]2O [11-ketotestosterone] | inducible | inducible | 
C[C@]12CCC(=O)C=C1CC[C@@H]1[C@@H]2CC[C@@]2(C)[C@H]1CC[C@]2(C)O [methyltestosterone] |  |  | ≥ 100
